Source: ChEMBL document CHEMBL4414630, “Cyclobutastellettolides A and B, C19 Norterpenoids from a Stelletta sp. Marine Sponge” (J Nat Prod, 2019)

Key:
N2a = test: Cytotoxicity against mouse Neuro2a cells assessed as inhibition of cell viability incubated for 24 hrs by MTT assay; assay type: cell-based
DLD-1 = test: Cytotoxicity against human DLD1 cells assessed as inhibition of cell viability incubated for 24 hrs by MTS assay; assay type: cell-based; conditions: DLD-1, 24 h
HT-29 = test: Cytotoxicity against human HT-29 cells assessed as inhibition of cell viability incubated for 24 hrs by MTS assay; assay type: cell-based; conditions: HT-29, 24 h
Peritoneal macrophage [1] = test: Induction of ROS generation in BALB/c mouse peritoneal macrophages at 10 uM incubated for 1 hr by H2DCF-DA staining based fluorescence analysis relative to control; assay type: functional
Peritoneal macrophage [2] = test: Induction of ROS generation in BALB/c mouse peritoneal macrophages at 1 uM incubated for 1 hr by H2DCF-DA staining based fluorescence analysis relative to control; assay type: functional

Structure (SMILES) | IC50 (N2a) [µM] | IC50 (DLD-1) [µM] | IC50 (HT-29) [µM] | Activity (Peritoneal macrophage [1]) [%] | Activity (Peritoneal macrophage [2]) [%]
CC(=O)O[C@H]1CC[C@@]2(C)[C@@H](CC[C@]3(C)C(=O)[C@@]4(C)OC(=O)C[C@@]234)C1(C)C | > 40 | > 40 | > 40 | 90 | 73
CC1(C)C(=O)CC[C@@]2(C)[C@H]1CC[C@]1(C)C(=O)[C@@]3(C)OC(=O)C[C@@]213 | > 40 | > 40 | > 40 | 93 | 55
